Data published in patent US12318462B2, “Multi-coated nanoparticles comprising multiple coating layers of chitosan and polyglutamic acid, composition for skin care comprising the same and method for manufacturing the same” (BINOTEC co., ltd., priority 2020, dated 2025).

Assay: DPPH radical scavenging ability of nanoparticles by time
Format: biochemical
Method: DPPH radical scavenging ability was measured to confirm the effect of antioxidant physiological activity according to the sustained-release release of nanoparticles according to the coating layer structure and amount of hydrogel.
50 μL of 0.2 mM 1,1-diphenyl-2-picrylhydrazyl (DPPH) was added to 100 ul of each sample solution. Then, it was stirred and reacted at room temperature for 30 minutes, and then the ELISA reader (Powerwave XS2, Biotek, USA) was used to measure the absorbance at […]. The control groups were Butylated Hydroxynisole (BHA) and Catechin.
Next, using Equation 2 below, the DPPH radical scavenging ability of each nanoparticle was calculated. DPPH radical scavenging ability (%)=(1−absorbance of sample added group/absorbance of no added group)×100 [Equation 2]

For `COc1ccc(O)c(C(C)(C)C)c1` [BHA, Butylated Hydroxynisole], the “DPPH radical scavenging ability” value (18 hr) was 93.2084%, the “DPPH radical scavenging ability” value (24 hr) was 82.3362% and the “DPPH radical scavenging ability” value (48 hr) was 47.0031%.
With Catechin the “DPPH radical scavenging ability” value (18 hr) was 93.4211%, the “DPPH radical scavenging ability” value (24 hr) was 87.4680% and the “DPPH radical scavenging ability” value (48 hr) was 70.5607%.
